Measurements: patent US20060063938A1, “Compounds to treat hiv infection and aids” (priority 2001, published 2006)
Where “and” joins values, the source holds several entries; their conditions need not be identical. Equal values may be shown once. Entries after “also recorded” stand apart in the source; their conditions may differ. Read-outs that look alike come from different tables or passages of the source.

Experiments:
HIV-1 integrase = HIV-1 integrase (Human immunodeficiency virus type 1 group M subtype B, UniProt P04585); assay: In vitro HIV-1 integrase assay (3′-processing and strand transfer) with 21-mer U5 LTR oligonucleotide; type: biochemical
HIV-1 [1] = assay: microbe, parasite or virus in culture; type: cell-based; details: for IC50: read-out: 50% Inhibitory Conc. (IC50)
[2] = system: replication competent HIV-1; assay: Inhibition of replication competent HIV-1 in H9 cells, p24 antigen ELISA; type: cell-based; details: 25 μM B compound, 15 days
Method: FIG. 6. Determination of inhibition of replication competent HIV-1 by B compound. HIV-1 infection was carried out in the presence of 25 μM B compound, 100 nM AZT, or in the absence of any drugs. Uninfected H9 culture was used as a negative control. […] Each time point of each culture was evaluated in duplicate.
Inhibition of replication competent HIV-1 by B compound was evaluated at 25 μM concentration. 293T cells were transfected with pNL4-3, a plasmid that encodes full HIV-1 genome. Virus harvested from the transfected cells was used to infect H9 target cells. […] In addition, H9 infected cells were cultured in the presence of 100 nM AZT as a control.
H9 T-lymphoid cells (ATCC) were maintained in the presence of RPMI 1640 Medium (Cellgro), 20% fetal calf serum (HyClone Laboratories), penicillin (50 U/ml; Gibco) and streptomycin (50 μg/ml; Gibco), 2 μg/ml Polybrene (Sigma). […] After 4 hours of infection, H9 cells were washed, resuspended in 2 ml of cell culture medium containing an appropriate drug and maintained in 35-mm-diameter dish. Cultures were fed every 3 days by removing 1 ml of cell culture suspension and replacing with equivalent amount of fresh medium containing an appropriate drug.

293T cells = assay: Cell proliferation inhibition (XTT) cell toxicity assay; type: cell-based
Method: To ensure that inhibition of luciferase activity in the presence of the compounds was indeed due to inhibition of HIV-1 infection and not due to the toxicity of these compounds to the target cells, we performed a cell toxicity assay in the presence of the same concentrations of compounds that were used for IC50 determination (FIG. 5).
Cell proliferation inhibition assay. The effects of inhibitors on cell toxicity were determined by using Cell Proliferation Kit II (XTT) (Roche Molecular Biochemicals). Target cells (293T) were plated at a density of 1×10^3 per well of 96-well plate. Twenty-four hours later cells were treated with an inhibitor for 36 hours. After inhibitor was removed, cells were incubated for additional 48 hours and then were stained with 50 μL of the XTT labeling mix per well (Roche Molecular Biochemicals). Spectrophotometrical absorbance of the samples was measured 4 hours after addition of the labeling mix at wavelengths of 450 nm with a reference point at 700 nm in a 96-well plate reader.

HIV-1 [3] = details: read-out: IC50 reported previously; Hazuda et al. 2000; cited from earlier work
[4] = 3′-processing step of integration reaction, read-out: IC50 3′-Processing
[5] = strand transfer step of integration reaction, read-out: IC50 Strand transfer
[6] = Human immunodeficiency virus 1, HEK-293T

For `[N-]=[N+]=NCc1cc(CN=[N+]=[N-])cc(C(=O)/C=C(\O)C(=O)O)c1` [Compound A, 4-(3,5-bis-azidomethyl-phenyl)-2-hydroxy-4-oxo-but-2-enoic acid], the IC50 (HIV-1 integrase; [4]) was over 100 µM, the IC50 (HIV-1 integrase; [5]) was 2 µM and 2.8 µM and the “Luciferase Activity Relative to No Drug Control (Avg ± S.E.)” value (HIV-1 [1]) was 5 ± 6%. It also gave an IC50 (HIV-1 [1]; [6]) of 1.6 µM.
In the case of `[N-]=[N+]=NCc1cccc(C(=O)C=C(O)C(=O)O)c1` [Compound B, 4-(3-azidomethyl-phenyl)-2-hydroxy-4-oxo-but-2-enoic acid], the IC50 (HIV-1 integrase; [4]) is reported as over 100 µM, the IC50 (HIV-1 integrase; [5]) is reported as 1.53 ± 0.27 µM and the “HIV-1 replication (p24 antigen) in infected H9 culture” value [2] is reported as “no significant amounts of HIV-1 replication was detected; also recorded: strongly inhibited replication competent HIV-1”. The “Luciferase Activity Relative to No Drug Control (Avg ± S.E.)” value (HIV-1 [1]) was 15 ± 7% and the IC50 (HIV-1 [1]; [6]) was 0.5 µM.
With `[N-]=[N+]=NCc1ccc(C(=O)C=C(O)C(=O)O)cc1CN=[N+]=[N-]` [Compound C] the IC50 (HIV-1 integrase; [4]) was over 100 µM, the IC50 (HIV-1 integrase; strand transfer step of integration reaction, listed as 4, read-out: IC50 Strand transfer) was 0.26 µM and 0.15 µM and the “Luciferase Activity Relative to No Drug Control (Avg ± S.E.)” value (HIV-1 [1]) was 36 ± 7%. The IC50 (HIV-1 [1]) was 19 µM.
In the case of `[N-]=[N+]=Nc1cccc(C(=O)C=C(O)C(=O)O)c1` [Compound D, 4-(3-azido-phenyl)-2-hydroxy-4-oxo-but-2-enoic acid], the “concentration giving 50% inhibition of cell proliferation” value (293T cells) is reported as “approximately 19 μM”, the IC50 (HIV-1 integrase; [4]) is reported as over 100 µM and the IC50 (HIV-1 integrase; [5]) is reported as 5.3 µM and 5.2 µM. The “Luciferase Activity Relative to No Drug Control (Avg ± S.E.)” value (HIV-1 [1]) was 137 ± 12%.
In the case of `Cc1cc(C)cc(C(=O)C=C(O)C(=O)O)c1` [Compound E], the IC50 (HIV-1 integrase; [4]) is reported as over 100 µM, the IC50 (HIV-1 integrase; strand transfer step of integration reaction, listed as 15, read-out: IC50 Strand transfer) is reported as 9 µM and 11 µM and the “Luciferase Activity Relative to No Drug Control (Avg ± S.E.)” value (HIV-1 [1]) is reported as 99 ± 14%. For the same molecule, the “antiviral activity in single cycle assay” value (HIV-1 [1]) was “did not show antiviral activity; also recorded: showed no antiviral activity”.
With `O=C(O)C(O)=CC(=O)c1ccc(Oc2ccccc2)cc1` [Compound F] the IC50 (HIV-1 integrase; [4]) was over 100 µM, the IC50 (HIV-1 integrase; strand transfer step of integration reaction, listed as 16, read-out: IC50 Strand transfer) was 7.8 µM and 15 µM and the “Luciferase Activity Relative to No Drug Control (Avg ± S.E.)” value (HIV-1 [1]) was 261 ± 5%.
With `O=C(C=Cc1ccc(O)c(O)c1)Nc1cccc(C(=O)C=C(O)C(=O)O)c1` [Compound G] the IC50 (HIV-1 integrase; [4]) was 9 µM, the IC50 (HIV-1 integrase; [5]) was 4.7 µM and the “Luciferase Activity Relative to No Drug Control (Avg ± S.E.)” value (HIV-1 [1]) was 24 ± 8%. It also gave an IC50 (HIV-1 [1]) of 2.2 µM.
With `O=C(O)C(O)=CC(=O)c1cccc(OCc2ccccc2)c1` [Compound H] the IC50 (HIV-1 integrase; 3′-processing step of integration reaction, listed as 18, read-out: IC50 3′-Processing) was 65 µM and 100 µM, the IC50 (HIV-1 integrase; [5]) was 0.35 ± 0.13 µM and the “Luciferase Activity Relative to No Drug Control (Avg ± S.E.)” value (HIV-1 [1]) was 14 ± 3%. For the same molecule, the IC50 (HIV-1 [1]) was 0.6 µM.
In the case of `O=C(O)C(O)=CC(=O)c1cccc(C(=O)c2ccccc2)c1` [Compound I], the IC50 (HIV-1 integrase; [4]) is reported as over 100 µM, the IC50 (HIV-1 integrase; strand transfer step of integration reaction, listed as 19, read-out: IC50 Strand transfer) is reported as 2.7 µM and 2.1 µM and the “Luciferase Activity Relative to No Drug Control (Avg ± S.E.)” value (HIV-1 [1]) is reported as 19 ± 2%.
For `O=C(C=C(O)c1nnn[nH]1)c1c[nH]c2ccccc12` [Compound P4, reference compound], the IC50 (HIV-1 integrase; [4]) was over 100 µM, the IC50 (HIV-1 integrase; strand transfer step of integration reaction, listed as 6, read-out: IC50 Strand transfer) was 1.9 µM and 2 µM and the “Luciferase Activity Relative to No Drug Control (Avg ± S.E.)” value (HIV-1 [1]) was 116 ± 27%.
In the case of `O=C(O)C(O)=CC(=O)c1cc(OCc2ccccc2)cc(OCc2ccccc2)c1` [Compound P10, reference compound], the IC50 (HIV-1 [3]) is listed as 2.5 µM, the IC50 (HIV-1 integrase; [4]) is listed as over 1000 µM and the “effect on 3′-processing step” value (HIV-1 integrase; concentrations up to the millimolar range) is listed as “unaffected”. The “IC50 for the strand transfer reaction” value (HIV-1 integrase; strand transfer) was “in the micromolar range”, the IC50 (HIV-1 integrase; [5]) was 1.03 ± 0.25 µM and the “Luciferase Activity Relative to No Drug Control (Avg ± S.E.)” value (HIV-1 [1]) was 7% and 7 ± 2%. It also gave an IC50 (HIV-1 [1]) of 2.3 µM.
For `O=C(C=C(O)c1nnn[nH]1)c1c[nH]c2ccc(F)cc12` [Compound P18, reference compound], the IC50 (HIV-1 integrase; 3′-processing step of integration reaction, listed as 9, read-out: IC50 3′-Processing) was 79 µM, the IC50 (HIV-1 integrase; strand transfer step of integration reaction, listed as 9, read-out: IC50 Strand transfer) was 1.8 µM and the “Luciferase Activity Relative to No Drug Control (Avg ± S.E.)” value (HIV-1 [1]) was 59 ± 13%.
In the case of `COc1ccc(Cn2nnnc2C(O)=CC(=O)c2c[nH]c3ccc(Cl)cc23)cc1` [Compound P20, reference compound], the IC50 (HIV-1 integrase; 3′-processing step of integration reaction, listed as 10, read-out: IC50 3′-Processing) is reported as 7.2 µM and 7.5 µM, the IC50 (HIV-1 integrase; [5]) is reported as 1.28 ± 0.38 µM and the “Luciferase Activity Relative to No Drug Control (Avg ± S.E.)” value (HIV-1 [1]) is reported as 133 ± 35%.
For `COc1ccc(Cn2nnnc2C(O)=CC(=O)c2c[nH]c3ccc(F)cc23)cc1` [Compound P22, reference compound], the IC50 (HIV-1 integrase; 3′-processing step of integration reaction, listed as 11, read-out: IC50 3′-Processing) was 8.1 µM and 5.5 µM, the IC50 (HIV-1 integrase; strand transfer step of integration reaction, listed as 11, read-out: IC50 Strand transfer) was 2.2 µM and 1.6 µM and the “Luciferase Activity Relative to No Drug Control (Avg ± S.E.)” value (HIV-1 [1]) was 98 ± 28%.
With `COc1ccc(Cn2nnnc2C(O)=CC(=O)c2c[nH]c3ccccc23)cc1` [Compound P23, reference compound] the IC50 (HIV-1 integrase; [4]) was over 100 µM, the IC50 (HIV-1 integrase; [5]) was 6.9 µM and the “Luciferase Activity Relative to No Drug Control (Avg ± S.E.)” value (HIV-1 [1]) was 104 ± 25%.
With `O=C(C=C(O)c1nnn[nH]1)c1c[nH]c2ccc(F)cc12` [Compound P31, reference compound] the IC50 (HIV-1 integrase; 3′-processing step of integration reaction, listed as 14, read-out: IC50 3′-Processing) was 82 µM, the IC50 (HIV-1 integrase; strand transfer step of integration reaction, listed as 14, read-out: IC50 Strand transfer) was 6.56 ± 0.81 µM and the “Luciferase Activity Relative to No Drug Control (Avg ± S.E.)” value (HIV-1 [1]) was 61 ± 17%.
